Data taken from publication PMC7349657, “Efficient Targeted Degradation via Reversible and Irreversible Covalent PROTACs” (Journal of the American Chemical Society, 2020).
pIC50: −log10 of the molar value.

Legend:
BTK kinase domain = molecular target: T1, BTK kinase domain (Homo sapiens, UniProt Q06187); assay: LC-MS covalent binding and ibrutinib competition assay with recombinant BTK kinase domain; conditions: for protein labeled by the PROTAC / formation of covalent complex with BTK: 3 μM compound + 2 μM BTK; for protein labeled by the PROTAC / displacement by ibrutinib (ibrutinib adduct formation) / formation of covalent complex with BTK: LC-MS; for displacement by ibrutinib (ibrutinib adduct formation): 40 μM ibrutinib added to preformed complex; for displacement by ibrutinib (ibrutinib adduct formation) / time scale of exchange / dissociation of the covalent complex: 37 °C; for time scale of exchange / dissociation of the covalent complex: 40 μM ibrutinib
T1 construct: human BTK kinase domain (residues 387–659); 6xHis (N, cleaved yes); TEV protease cleavage site (N, cleaved yes); made in house; virus produced in Sf9, expression in Tni insect cells
Procedure: We also used LC-MS to directly observe the formation of covalent complexes with recombinant BTK and measure their dissociation kinetics (Figure 6C, D, Supporting Figure 5A).
Binding experiments were performed in Tris 20 mM pH = 8, 50 mM NaCl, and 1 mM DTT. BTK kinase domain was diluted to 2 μM in buffer, and 3 μM PROTAC was added by adding 1/100th volume from a 300 μM solution. The PROTACs were incubated with BTK at room temperature for various times. For testing by LCMS, 24 μL of the solution was mixed with 6 μL of 2.4% formic acid, and 10 μL was injected to LCMS.
For binding experiments in the presence of glutathione, freshly dissolved reduced glutathione was incubated at 6.14 mM with 4 μM compounds for 30 min at room temperature in Tris 20 mM pH = 8 and 50 mM NaCl. At this point BTK was added to a concentration of 2 μM (diluting the GSH to 5 mM and the compounds to 3.25 μM), and LC-MS was used as described previously to follow the covalent labeling of BTK.
For data analysis, the raw spectra were deconvoluted using a 27 000:37 000 Da window and 1 Da resolution. The signal from masses 27 000:30 000 and 34 000:37 000 (which contained no peaks) was averaged and subtracted from the whole signal.
Cloning and Over Expression of BTK
Human wild type BTK full length was obtained from the ORFeome (ref: http://www.orfeomecollaboration.org/), from which the full human BTK gene (clone HsCD00433457) was inserted into the mammalian expression vector pCDNA3.1. In parallel, a mutant BTK C481S was constructed by assemble 2 PCR products harboring the desired mutation and cloned into pCDNA3.1. Both constructs contain a C -terminal 6x-His tag and three amino acids sequence (GTK) linker between the BTK coding sequence and the His tag.
The expression of hBTK is driven by the CMV promoter. U2OS cells (ATCC HTB-96) were grown to 70% confluency in a 10 cm plate, transfected with either hBTK plasmid (BTK WT or C481S) using Lipofectamine 2000 reagent (Thermo Fisher Scientific) according to manufacturer’s instructions. Cells were subsequently incubated for 48 hours post transfection, trypsinized and resuspended in 12 mL medium, and divided 2 mL per well in a 6-well plates and left to adhere over-night. 72 hours post transfection 100 nM PROTACs were added for 24 hours and BT K was measured by performing western blot procedure as described in the main […]
Expression and Purification of Recombinant BTK
The expression and purification of human BTK kinase domain (residues 387–659) was based on the method used by Bradsha w JM. et al1. The kinase domain was inserted into pFastBac-1 with an N-terminal 6× -His tag followed by a TEV protease cleavage site (The plasmid was a gift from Dr. Ville Paavilainen, University of Helsinki). Viruses were produced […]
cells by infection of 2 L of cultured cells with 1:200 mL virus solution such that cell growth was terminated after 3 days. The cells were collected by centrifugation (800 g for 15 minutes), and the pellet was resu spended in 50 mL ly sis buf fer (10 mM Hepes, pH 7.5, 400 mM NaCl, 1.5 mM DTT) supplemented with 1× protease inhibitor cocktail (Roche). The cells were lysed by five passages through a cell homogenizer. The cellular debris wer e pelleted by centrifugation (30,000 g for 30 minutes). The protein was bound in batch to nickel– nitrilotriacetic acid agarose beads in binding buffer (lysis buffer supplemented with 20 mM imidazole) for 4 hours at 4°C. The beads were washed with additional binding buffer ( four 5 mL washes), and the protein was eluted with four 0.5 mL portions of elution buffer (lysis buffer […]
supplemented with 300 mM imidazole). The His tag was cleaved by the addition of TEV protease with concomitant dialysis overnight into cleavage buffer (50 mM Tris, pH 8.0, 0.5 mM EDTA, 1 mM DTT) at 4°C. The resulting soluble protein was passed ov er Ni -NTA beads to remove the protease and purified further by gel filtration on a HiLoad_16/60_Superdex_75 (GE Healthcare) column equilibrated with 20 mM Tris, pH 8.0, 50 mM NaCl, 1 mM DTT. The […]

wild-type BTK = wild-type BTK (Homo sapiens, UniProt Q06187); assay: In vitro kinase activity assay, wild-type BTK (Nanosyn)
Sequence of wild-type BTK (Q06187 whole entry, species assumed): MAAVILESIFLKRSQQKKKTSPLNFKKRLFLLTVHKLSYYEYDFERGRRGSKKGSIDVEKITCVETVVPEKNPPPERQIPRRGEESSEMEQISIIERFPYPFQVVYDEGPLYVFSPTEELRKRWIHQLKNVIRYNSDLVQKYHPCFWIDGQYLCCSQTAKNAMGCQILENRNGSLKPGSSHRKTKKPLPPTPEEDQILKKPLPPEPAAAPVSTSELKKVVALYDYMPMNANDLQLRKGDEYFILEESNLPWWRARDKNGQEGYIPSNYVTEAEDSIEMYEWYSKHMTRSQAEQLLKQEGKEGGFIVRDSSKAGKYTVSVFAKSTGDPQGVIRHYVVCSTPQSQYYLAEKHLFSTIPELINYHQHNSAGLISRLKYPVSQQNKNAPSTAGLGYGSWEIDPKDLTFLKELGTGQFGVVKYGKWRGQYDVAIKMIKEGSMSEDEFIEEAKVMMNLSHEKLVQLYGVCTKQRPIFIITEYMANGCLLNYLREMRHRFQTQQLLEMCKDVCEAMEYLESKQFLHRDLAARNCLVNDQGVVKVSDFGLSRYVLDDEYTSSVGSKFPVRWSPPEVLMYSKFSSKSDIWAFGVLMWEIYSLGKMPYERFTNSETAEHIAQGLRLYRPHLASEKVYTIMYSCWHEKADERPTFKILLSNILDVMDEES

T1 sequence (Q06187 387-659): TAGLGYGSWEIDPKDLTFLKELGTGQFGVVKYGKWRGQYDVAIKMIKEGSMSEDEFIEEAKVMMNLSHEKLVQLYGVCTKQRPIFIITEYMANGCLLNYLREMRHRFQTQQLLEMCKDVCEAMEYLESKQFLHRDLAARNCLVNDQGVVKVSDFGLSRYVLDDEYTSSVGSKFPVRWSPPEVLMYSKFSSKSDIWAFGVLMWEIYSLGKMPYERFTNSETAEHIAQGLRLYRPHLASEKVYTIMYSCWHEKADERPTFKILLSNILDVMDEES

SMILES | protein labeled by the PROTAC (BTK kinase domain) | displacement by ibrutinib (ibrutinib adduct formation) (BTK kinase domain) | pIC50 (wild-type BTK) | formation of covalent complex with BTK (BTK kinase domain; room temperature) | ibrutinib labeling of BTK in presence of the PROTAC (BTK kinase domain; 4 μM ibrutinib, 1 h, room temperature) [%] | time to full ibrutinib labeling of BTK in presence of preincubated PROTAC (BTK kinase domain; 4 μM ibrutinib, room temperature) [h] | time scale of exchange / dissociation of the covalent complex (BTK kinase domain) [h]
Nc1ncnc2c1c(-c1ccc(Oc3ccccc3)cc1)nn2C1CCCN(C(=O)C=CCOCCOCCOCCOCCOCCOc2cccc3c2C(=O)N(C2CCC(=O)NC2=O)C3=O)C1 (centres unmarked) [IR-1] | 80–85% | no ibrutinib adduct was observed even after 28 h | 8.70 |  |  |  | 
Nc1ncnc2c1c(-c1ccc(Oc3ccccc3)cc1)nn2C1CCCN(C(=O)C=CCCCCOCCOCCOCCOCCOc2cccc3c2C(=O)N(C2CCC(=O)NC2=O)C3=O)C1 (centres unmarked) [IR-2] | 80–85% | no ibrutinib adduct was observed even after 28 h | 7.85 |  |  |  | 
Nc1ncnc2c1c(-c1ccc(Oc3ccccc3)cc1)nn2C1CCCN(C(=O)CCCCCCOCCOCCOCCOCCOc2cccc3c2C(=O)N(C2CCC(=O)NC2=O)C3=O)C1 (centres unmarked) [NC-1] |  |  | 7.80 | forms no covalent adduct | 100 | ≤ 1 | 
N#CC(=CCCCCOCCOCCOCCOCCOc1cccc2c1C(=O)N(C1CCC(=O)NC1=O)C2=O)C(=O)N1CCCC(n2nc(-c3ccc(Oc4ccccc4)cc3)c3c(N)ncnc32)C1 (centres unmarked) [RC-2] |  | gradual displacement of the PROTAC by ibrutinib | 9.00 |  |  |  | 10 to 20
CC(C)(C=C(C#N)C(=O)N1CCCC(n2nc(-c3ccc(Oc4ccccc4)cc3)c3c(N)ncnc32)C1)CCCOCCOCCOCCOCCOc1cccc2c1C(=O)N(C1CCC(=O)NC1=O)C2=O (centres unmarked) [RC-3] |  | gradual displacement of the PROTAC by ibrutinib | 9.40 | extremely fast |  |  | 10 to 20
